Source: paper PMC5538713, “RORγt and RORα signature genes in human Th17 cells” (PLoS ONE, 2017)
Read-outs that look alike come from different tables or passages of the source.

What was measured:
Assay in all cases: Cerep selectivity panel
Type in all cases: binding
V1 a (h) = molecular target: T1, V1 a (h) (Homo sapiens, UniProt P37288); conditions: for inhibition at 10 µM: read-out: % Inhibition at 10µM
T1 construct: purchased Cerep
Procedure: (§1) Supplementary file pone.0181868.s003.docx: S3 Table Selectivity profile of RORγt inverse agonists A, B, C and D. Compounds were evaluated at 1 μM and 10 μM in a panel of assays against 50 receptors, ion channels and transporters (Profile service by Cerep Inc.). (DOCX) Click here for additional data file.
(§2) S3 Table. RORɣt inverse agonists A, B, C and D were evaluated at 1 µM and 10 µM in a panel of assays against 50 receptors, ion channels and transporters (Profile service by Cerep Inc.).

H1 (h) = molecular target: T2, H1 (h) (Homo sapiens, UniProt P35367); conditions: for inhibition at 10 µM: read-out: % Inhibition at 10µM
T2 construct: purchased Cerep
Procedure: as §1, §2

5HT3 (h) = molecular target: T3, 5HT3 (h) (Homo sapiens, UniProt P46098); conditions: for inhibition at 1 µM: read-out: % Inhibition at 1µM; for inhibition at 10 µM: read-out: % Inhibition at 10µM
T3 construct: purchased Cerep
T3 sequence (P46098 24-478): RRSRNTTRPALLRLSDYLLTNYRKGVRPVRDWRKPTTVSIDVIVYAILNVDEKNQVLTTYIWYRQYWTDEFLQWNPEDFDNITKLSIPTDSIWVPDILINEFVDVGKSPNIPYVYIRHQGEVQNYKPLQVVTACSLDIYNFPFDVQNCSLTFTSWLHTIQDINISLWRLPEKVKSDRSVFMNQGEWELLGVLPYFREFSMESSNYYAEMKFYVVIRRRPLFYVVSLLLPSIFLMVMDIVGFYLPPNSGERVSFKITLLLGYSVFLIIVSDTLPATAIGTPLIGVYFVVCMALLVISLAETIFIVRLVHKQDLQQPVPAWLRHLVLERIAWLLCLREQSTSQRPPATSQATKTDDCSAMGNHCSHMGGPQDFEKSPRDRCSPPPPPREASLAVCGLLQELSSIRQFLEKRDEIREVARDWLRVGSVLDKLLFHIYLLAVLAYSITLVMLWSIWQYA
Procedure: as §1, §2

BK2 (h) = molecular target: T4, BK2 (h) (Homo sapiens, UniProt P30411); conditions: for inhibition at 1 µM: read-out: % Inhibition at 1µM; for inhibition at 10 µM: read-out: % Inhibition at 10µM
T4 construct: purchased Cerep
T4 sequence (P30411 1-391): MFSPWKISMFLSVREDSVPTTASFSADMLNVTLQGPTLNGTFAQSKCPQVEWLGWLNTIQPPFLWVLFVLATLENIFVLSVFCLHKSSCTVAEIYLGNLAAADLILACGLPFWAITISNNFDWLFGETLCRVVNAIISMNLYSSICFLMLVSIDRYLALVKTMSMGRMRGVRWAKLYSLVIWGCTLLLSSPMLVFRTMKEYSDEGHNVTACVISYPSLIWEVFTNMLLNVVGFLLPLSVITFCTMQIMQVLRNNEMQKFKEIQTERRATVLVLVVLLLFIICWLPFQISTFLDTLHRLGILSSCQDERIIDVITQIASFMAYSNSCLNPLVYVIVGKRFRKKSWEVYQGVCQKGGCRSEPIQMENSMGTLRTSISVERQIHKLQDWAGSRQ
Procedure: as §1, §2

5HT5A (h) = molecular target: T5, 5HT5A (h) (Homo sapiens, UniProt P47898); conditions: for inhibition at 1 µM: read-out: % Inhibition at 1µM; for inhibition at 10 µM: read-out: % Inhibition at 10µM
T5 construct: purchased Cerep
Procedure: as §1, §2

A3 (h) = molecular target: T6, A3 (h) (Homo sapiens, UniProt P0DMS8); conditions: for inhibition at 1 µM: read-out: % Inhibition at 1µM; for inhibition at 10 µM: read-out: % Inhibition at 10µM
T6 construct: purchased Cerep
T6 sequence (P0DMS8 1-318): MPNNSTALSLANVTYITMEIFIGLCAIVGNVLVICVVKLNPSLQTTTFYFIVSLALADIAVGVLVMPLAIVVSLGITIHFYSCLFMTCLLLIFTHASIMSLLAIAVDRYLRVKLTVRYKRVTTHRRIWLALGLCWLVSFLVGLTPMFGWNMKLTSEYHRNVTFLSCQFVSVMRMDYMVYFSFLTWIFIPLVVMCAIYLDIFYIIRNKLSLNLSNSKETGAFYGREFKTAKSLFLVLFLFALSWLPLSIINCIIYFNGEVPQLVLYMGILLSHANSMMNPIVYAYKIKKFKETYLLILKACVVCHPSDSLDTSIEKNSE
Procedure: as §1, §2

MC4 (h) = molecular target: T7, MC4 (h) (Homo sapiens, UniProt P32245); conditions: for inhibition at 10 µM: read-out: % Inhibition at 10µM; for inhibition at 1 µM: read-out: % Inhibition at 1µM
T7 construct: purchased Cerep
Procedure: as §1, §2

5HT2A (h) = molecular target: T8, 5HT2A (h) (Homo sapiens, UniProt P28223); conditions: read-out: % Inhibition at 10µM
T8 construct: purchased Cerep
Procedure: as §1, §2

D1 (h) = molecular target: T9, D1 (h) (Homo sapiens, UniProt P21728); conditions: for inhibition at 1 µM: read-out: % Inhibition at 1µM; for inhibition at 10 µM: read-out: % Inhibition at 10µM
T9 construct: purchased Cerep
Procedure: as §1, §2

NE-T = molecular target: T10, NE-T (Homo sapiens, UniProt P23975); conditions: for inhibition at 1 µM: read-out: % Inhibition at 1µM; for inhibition at 10 µM: read-out: % Inhibition at 10µM
T10 construct: purchased Cerep
Procedure: as §1, §2

ɣ2 (h) = molecular target: T11, ɣ2 (h) (Homo sapiens, UniProt P49146)
T11 construct: purchased Cerep
T11 sequence (P49146 1-381): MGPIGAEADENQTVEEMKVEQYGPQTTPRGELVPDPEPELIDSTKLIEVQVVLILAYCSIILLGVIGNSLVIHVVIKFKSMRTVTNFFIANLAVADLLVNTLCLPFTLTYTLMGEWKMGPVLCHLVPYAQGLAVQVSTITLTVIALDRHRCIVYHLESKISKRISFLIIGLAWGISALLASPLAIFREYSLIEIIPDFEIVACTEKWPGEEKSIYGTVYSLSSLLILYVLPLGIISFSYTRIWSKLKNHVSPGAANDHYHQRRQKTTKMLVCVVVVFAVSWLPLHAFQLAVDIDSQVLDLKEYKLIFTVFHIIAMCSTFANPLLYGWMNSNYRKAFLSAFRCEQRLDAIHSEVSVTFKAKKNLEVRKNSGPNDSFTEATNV
Procedure: as §1, §2

D2S (h) = molecular target: T12, D2S (h) (Homo sapiens, UniProt P14416); conditions: for inhibition at 1 µM: read-out: % Inhibition at 1µM; for inhibition at 10 µM: read-out: % Inhibition at 10µM
T12 construct: purchased Cerep
Procedure: as §1, §2

A2A (h) = molecular target: T13, A2A (h) (Homo sapiens, UniProt P29274); conditions: for inhibition at 1 µM: read-out: % Inhibition at 1µM; for inhibition at 10 µM: read-out: % Inhibition at 10µM
T13 construct: purchased Cerep
Procedure: as §1, §2

CXCR2 (h) = molecular target: T14, CXCR2 (h) (Homo sapiens, UniProt P25025); conditions: read-out: % Inhibition at 10µM
T14 construct: purchased Cerep
T14 sequence (P25025 1-360): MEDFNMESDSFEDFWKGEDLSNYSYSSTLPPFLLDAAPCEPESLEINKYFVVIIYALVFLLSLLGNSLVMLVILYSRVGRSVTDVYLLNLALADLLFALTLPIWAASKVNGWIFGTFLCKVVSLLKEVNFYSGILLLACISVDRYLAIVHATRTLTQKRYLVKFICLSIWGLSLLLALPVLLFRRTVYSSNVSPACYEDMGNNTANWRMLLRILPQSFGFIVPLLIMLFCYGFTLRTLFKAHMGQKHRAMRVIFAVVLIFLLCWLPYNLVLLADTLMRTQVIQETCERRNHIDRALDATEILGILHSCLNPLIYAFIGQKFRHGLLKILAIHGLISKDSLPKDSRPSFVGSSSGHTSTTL
Procedure: as §1, §2

T7 sequence (P32245 whole entry): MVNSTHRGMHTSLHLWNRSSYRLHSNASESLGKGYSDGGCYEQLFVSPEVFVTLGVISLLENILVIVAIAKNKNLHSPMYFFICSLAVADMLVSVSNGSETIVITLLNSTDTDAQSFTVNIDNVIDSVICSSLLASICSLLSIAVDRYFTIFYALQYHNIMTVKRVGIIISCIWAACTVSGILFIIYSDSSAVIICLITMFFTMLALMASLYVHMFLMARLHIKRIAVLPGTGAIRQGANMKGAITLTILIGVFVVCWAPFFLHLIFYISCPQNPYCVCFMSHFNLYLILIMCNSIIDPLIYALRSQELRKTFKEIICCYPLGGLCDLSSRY
T13 sequence (P29274 whole entry): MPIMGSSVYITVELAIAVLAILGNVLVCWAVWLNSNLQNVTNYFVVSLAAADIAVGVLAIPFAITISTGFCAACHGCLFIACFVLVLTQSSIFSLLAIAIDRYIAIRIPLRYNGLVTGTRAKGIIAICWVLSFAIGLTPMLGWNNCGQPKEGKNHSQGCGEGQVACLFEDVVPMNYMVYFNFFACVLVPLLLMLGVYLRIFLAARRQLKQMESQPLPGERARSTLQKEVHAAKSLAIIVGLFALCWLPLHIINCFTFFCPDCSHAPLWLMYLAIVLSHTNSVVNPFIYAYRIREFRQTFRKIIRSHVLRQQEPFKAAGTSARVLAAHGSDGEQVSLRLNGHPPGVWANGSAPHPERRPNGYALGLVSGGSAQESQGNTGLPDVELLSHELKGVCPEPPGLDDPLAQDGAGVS
T1 sequence (P37288 whole entry): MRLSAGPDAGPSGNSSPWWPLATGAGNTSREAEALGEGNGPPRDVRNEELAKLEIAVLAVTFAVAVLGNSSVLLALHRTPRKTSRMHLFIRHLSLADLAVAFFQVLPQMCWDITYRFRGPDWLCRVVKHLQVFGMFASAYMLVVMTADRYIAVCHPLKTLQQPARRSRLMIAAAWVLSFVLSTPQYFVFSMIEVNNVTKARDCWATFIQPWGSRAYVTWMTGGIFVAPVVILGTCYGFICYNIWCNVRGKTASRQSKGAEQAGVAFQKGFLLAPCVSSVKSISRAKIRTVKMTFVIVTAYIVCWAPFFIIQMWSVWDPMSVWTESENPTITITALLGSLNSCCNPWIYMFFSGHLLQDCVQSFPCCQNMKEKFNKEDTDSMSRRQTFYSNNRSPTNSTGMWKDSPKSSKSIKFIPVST
T5 sequence (P47898 whole entry): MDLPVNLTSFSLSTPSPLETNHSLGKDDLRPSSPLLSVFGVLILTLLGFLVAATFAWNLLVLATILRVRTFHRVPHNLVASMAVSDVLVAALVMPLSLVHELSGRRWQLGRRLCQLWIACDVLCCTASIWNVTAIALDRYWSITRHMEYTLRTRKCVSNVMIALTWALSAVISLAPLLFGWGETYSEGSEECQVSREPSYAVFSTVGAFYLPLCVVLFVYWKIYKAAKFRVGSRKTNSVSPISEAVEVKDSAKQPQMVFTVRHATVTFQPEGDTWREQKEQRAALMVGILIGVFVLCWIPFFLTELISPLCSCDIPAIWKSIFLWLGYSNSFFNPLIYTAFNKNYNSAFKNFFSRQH
T12 sequence (P14416 1-414 isoform P14416-2): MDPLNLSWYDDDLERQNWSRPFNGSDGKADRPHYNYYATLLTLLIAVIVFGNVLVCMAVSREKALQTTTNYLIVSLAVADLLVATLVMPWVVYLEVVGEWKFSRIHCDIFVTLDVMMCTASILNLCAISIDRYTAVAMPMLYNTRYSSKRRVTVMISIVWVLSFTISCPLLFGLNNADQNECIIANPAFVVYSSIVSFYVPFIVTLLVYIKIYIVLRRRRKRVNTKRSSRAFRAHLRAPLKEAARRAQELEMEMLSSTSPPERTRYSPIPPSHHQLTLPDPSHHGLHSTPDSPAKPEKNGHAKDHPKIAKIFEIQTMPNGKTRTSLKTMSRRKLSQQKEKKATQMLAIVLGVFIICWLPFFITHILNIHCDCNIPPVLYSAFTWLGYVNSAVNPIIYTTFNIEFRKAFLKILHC
T2 sequence (P35367 whole entry): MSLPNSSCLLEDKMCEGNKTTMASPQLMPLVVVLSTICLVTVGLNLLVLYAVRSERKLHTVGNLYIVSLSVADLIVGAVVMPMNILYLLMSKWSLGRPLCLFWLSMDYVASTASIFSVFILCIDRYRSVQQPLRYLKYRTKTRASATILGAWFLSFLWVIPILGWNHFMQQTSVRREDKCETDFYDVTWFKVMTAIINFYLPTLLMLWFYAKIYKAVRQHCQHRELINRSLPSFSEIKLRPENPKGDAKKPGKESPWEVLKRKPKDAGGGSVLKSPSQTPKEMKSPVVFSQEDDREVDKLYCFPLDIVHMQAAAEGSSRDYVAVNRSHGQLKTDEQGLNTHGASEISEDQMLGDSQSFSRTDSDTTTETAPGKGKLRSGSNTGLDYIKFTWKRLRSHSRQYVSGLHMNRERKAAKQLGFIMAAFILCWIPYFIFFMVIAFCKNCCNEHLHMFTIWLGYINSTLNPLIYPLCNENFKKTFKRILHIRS
T9 sequence (P21728 whole entry): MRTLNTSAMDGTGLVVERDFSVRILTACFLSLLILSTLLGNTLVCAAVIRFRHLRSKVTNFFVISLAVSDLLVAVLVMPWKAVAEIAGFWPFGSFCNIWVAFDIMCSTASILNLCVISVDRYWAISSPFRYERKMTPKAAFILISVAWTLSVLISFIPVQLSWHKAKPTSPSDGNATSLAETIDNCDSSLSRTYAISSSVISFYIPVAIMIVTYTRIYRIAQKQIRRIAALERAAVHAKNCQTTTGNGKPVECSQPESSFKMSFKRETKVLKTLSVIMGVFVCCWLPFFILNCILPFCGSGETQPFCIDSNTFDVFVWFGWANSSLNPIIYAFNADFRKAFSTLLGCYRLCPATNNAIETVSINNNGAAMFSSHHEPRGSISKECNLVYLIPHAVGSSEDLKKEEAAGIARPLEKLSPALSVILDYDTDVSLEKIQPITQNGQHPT
T8 sequence (P28223 whole entry): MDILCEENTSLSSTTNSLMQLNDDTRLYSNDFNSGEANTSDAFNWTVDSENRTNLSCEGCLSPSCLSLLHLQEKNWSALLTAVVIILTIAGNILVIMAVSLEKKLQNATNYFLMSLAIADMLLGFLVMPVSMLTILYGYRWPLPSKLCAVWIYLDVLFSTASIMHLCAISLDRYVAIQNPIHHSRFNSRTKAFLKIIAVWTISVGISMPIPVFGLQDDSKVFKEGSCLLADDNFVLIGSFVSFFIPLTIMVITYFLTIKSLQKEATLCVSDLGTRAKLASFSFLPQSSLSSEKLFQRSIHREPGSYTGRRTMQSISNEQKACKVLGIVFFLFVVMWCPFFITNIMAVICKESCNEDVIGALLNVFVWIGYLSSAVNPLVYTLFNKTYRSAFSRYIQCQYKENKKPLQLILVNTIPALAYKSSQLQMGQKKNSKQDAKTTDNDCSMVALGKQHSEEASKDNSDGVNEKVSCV
T10 sequence (P23975 whole entry): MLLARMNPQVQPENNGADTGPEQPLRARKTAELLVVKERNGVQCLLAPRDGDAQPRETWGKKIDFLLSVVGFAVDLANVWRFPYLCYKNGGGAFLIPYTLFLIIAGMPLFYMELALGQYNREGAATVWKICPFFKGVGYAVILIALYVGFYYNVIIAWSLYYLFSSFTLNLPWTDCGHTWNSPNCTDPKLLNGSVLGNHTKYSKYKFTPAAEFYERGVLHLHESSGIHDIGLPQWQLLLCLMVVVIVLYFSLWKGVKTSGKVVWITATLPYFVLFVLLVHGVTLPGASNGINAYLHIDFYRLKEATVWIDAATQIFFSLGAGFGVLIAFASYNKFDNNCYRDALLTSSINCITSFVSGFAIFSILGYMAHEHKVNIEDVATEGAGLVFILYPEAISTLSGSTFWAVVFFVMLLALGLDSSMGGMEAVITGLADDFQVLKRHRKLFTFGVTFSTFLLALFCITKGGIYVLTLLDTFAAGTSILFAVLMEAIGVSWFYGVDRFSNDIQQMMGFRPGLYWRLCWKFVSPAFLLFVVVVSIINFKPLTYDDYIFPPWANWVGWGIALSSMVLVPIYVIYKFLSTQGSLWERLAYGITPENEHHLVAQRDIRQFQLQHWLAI

Compound	inhibition at 10 µM (V1 a (h))	inhibition at 10 µM (H1 (h))	inhibition at 1 µM (5HT3 (h))	inhibition at 10 µM (5HT3 (h))	inhibition at 10 µM (BK2 (h))	inhibition at 1 µM (5HT5A (h))	inhibition at 10 µM (5HT5A (h))	inhibition at 1 µM (A3 (h))	inhibition at 10 µM (A3 (h))	inhibition at 10 µM (MC4 (h))	inhibition at 10 µM (5HT2A (h))	inhibition at 10 µM (D1 (h))	inhibition at 1 µM (NE-T)	inhibition at 10 µM (NE-T)	inhibition at 10 µM (ɣ2 (h))	inhibition at 1 µM (D2S (h))	inhibition at 1 µM (A2A (h))	inhibition at 10 µM (A2A (h))	inhibition at 10 µM (CXCR2 (h))	inhibition at 1 µM (MC4 (h))	further results
COc1nc2ccc([C@](O)(c3ccc(Cl)cc3)c3cncn3C)cc2c(Cl)c1Cc1ccc(-n2cccn2)cc1 [B]	10%	2%	16%	19%	6%	25%	31%	9%	20%	6%	12%	29%	21%	38%	10%	7%					inhibition at 1 µM (V1 a (h); read-out: % Inhibition at 1µM): 10%; inhibition at 1 µM (BK2 (h)): 9%; inhibition at 1 µM (D1 (h)): 10%
COc1nc2ccc([C@@](O)(c3ccc(C)nc3C)c3cnnn3C)cc2c(Cl)c1Cc1ccc(C(F)(F)F)cc1 [compound A]																					inhibition at 10 µM (V1 a (h); V1 a (h), 10 µM): 19%; inhibition at 1 µM (A2A (h); A2A (h), 1 µM): 20%; inhibition at 10 µM (A2A (h); A2A (h), 10 µM): 5%; inhibition at 10 µM (CXCR2 (h); CXCR2 (h), 10 µM): 12%; inhibition at 10 µM (H1 (h); H1 (h), 10 µM): 8%; inhibition at 1 µM (5HT3 (h); 5HT3 (h), 1 µM): 7%; inhibition at 10 µM (5HT3 (h); 5HT3 (h), 10 µM): 29%; inhibition at 1 µM (BK2 (h); BK2 (h), 1 µM): 6%; inhibition at 1 µM (5HT5A (h); 5HT5A (h), 1 µM): 7%; inhibition at 10 µM (5HT5A (h); 5HT5A (h), 10 µM): 84%; inhibition at 1 µM (A3 (h); A3 (h), 1 µM): 49%; inhibition at 10 µM (A3 (h); A3 (h), 10 µM): 92%; inhibition at 10 µM (MC4 (h); MC4 (h), 10 µM): 9%; inhibition at 10 µM (5HT2A (h); 5HT2A (h), 10 µM): 27%; inhibition at 1 µM (D1 (h); D1 (h), 1 µM): 16%; inhibition at 10 µM (D1 (h); D1 (h), 10 µM): 48%; inhibition at 1 µM (NE-T; NE-T, 1 µM): 44%; inhibition at 10 µM (NE-T; NE-T, 10 µM): 86%; inhibition at 1 µM (D2S (h); D2S (h), 1 µM): 12%; inhibition at 10 µM (D2S (h); D2S (h), 10 µM): 70%
CN(C)c1nc2ccc(C(O)(c3ccncc3)c3cncn3C)cc2c(Cl)c1-c1ccccc1 (centres unmarked) [compound D]	12%	27%	8%	17%	10%		42%		67%	25%	22%	40%	5%	76%	15%	7%	2%	43%	17%	3%	inhibition at 1 µM (ɣ2 (h); 1 µM): 10%; inhibition at 10 µM (D2S (h)): 25%
COc1nc2ccc([C@@](O)(c3ccccc3)C3CCN(C(C)=O)CC3)cc2c(Cl)c1Cc1ccc(-n2cccn2)cc1 [C]				18%		13%	23%	16%	41%			11%	19%	38%	5%	10%	18%	21%	10%	14%	inhibition at 1 µM (H1 (h); read-out: % Inhibition at 1µM): 10%
